Values of other authors, collected in US20260356885A1, “PROCESS FOR MANUFACTURING AN ANTIBIOTIC MACROCYCLIC PEPTIDE” (Hoffmann-La Roche Inc., priority 2022, published 2026).

Test system: Acinetobacter baumannii
Conditions: statement in words, as discussed in WO2019206853; no test or value given

CN1C(=O)[C@H](CCCCN)NC(=O)[C@H](CCCN)NCc2cccnc2Sc2cccc(-c3ccc(C(=O)O)cc3)c2CNC(=O)[C@@H]1Cc1c[nH]c2ccccc12 [compound of formula (I), 4-[(11S,14S,17S)-14-(4-Aminobutyl)-11-(3-aminopropyl)-17-(1H-indol-3-ylmethyl)-16-methyl-12,15,18-trioxo-2-thia-4, 10, 13, 16, 19-pentazatricyclo[19.4.0.03,8]pentacosa-1 (25),3 (8), 4,6,21,23-hexaen-22-yl]benzoic acid]
antibiotic action, selective against Acinetobacter baumannii: potent antibiotic with selective action against Acinetobacter baumannii
